According to PubChem BioAssay AID330 (DTP/NCI, 2004):
Several values for one entry are separate records, joined by “and”; a condition that tells them apart may be missing. Identical values can stand only once. Toxic doses and inconclusive results are not listed. The calls were made as follows: active = survival T/C of 150% or more; inactive = T/C below 125% in these data.

System: P388 leukemia ip, CD2F1 mice, survival T/C
Assay: NCI In Vivo Anticancer Drug Screen. Data for tumor model P388 Leukemia (intraperitoneal) in CD2F1 (CDF1) mice
Settings: endpoint: median survival time, higher = longer survival
In short: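 Mice carrying the transplanted tumor received test compound or vehicle. Survival was recorded in each group, and the value is the treated-group measurement divided by that of the vehicle-treated control group.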

[1] = dose: 50.0 mg/kg/injection, schedule: Q01DX005 (ip), vehicle: saline with Tween-80
[2] = dose: 100.0 mg/kg/injection, schedule: Q01DX005 (ip), vehicle: saline with Tween-80
[3] = dose: 200.0 mg/kg/injection, schedule: Q01DX005 (ip), vehicle: saline with Tween-80
[4] = dose: 100.0 mg/kg/injection, schedule: Q04DX003 (ip), vehicle: saline
[5] = dose: 200.0 mg/kg/injection, schedule: Q04DX003 (ip), vehicle: saline
[6] = dose: 50.0 mg/kg/injection, schedule: Q01DX009 (ip), vehicle: Klucel (hydroxypropylcellulose) (HPC)
[7] = dose: 100.0 mg/kg/injection, schedule: Q01DX009 (ip), vehicle: Klucel (hydroxypropylcellulose) (HPC)
[8] = dose: 200.0 mg/kg/injection, schedule: Q01DX009 (ip), vehicle: Klucel (hydroxypropylcellulose) (HPC)
[9] = dose: 100.0 mg/kg/injection, schedule: Q01DX009 (ip), vehicle: saline with Tween-80
[10] = dose: 50.0 mg/kg/injection, schedule: Q01DX005 (ip), vehicle: Klucel (hydroxypropylcellulose) (HPC)

Measured: T/C

c1ccc2c(Oc3c4ccccc4nc4ccccc34)c3ccccc3nc2c1
inactive: [1] 95 % of control | [2] 88 % of control | [3] 90 % of control

COc1cc2c(oc(=O)c3cc(C)cc(OC)c32)c2c(C3OC(C)C(O)C(C)(O)C3O)ccc(O)c12 (stereo unspecified)
inactive: dose: 1.56 mg/kg/injection, schedule: Q01DX005 (ip), vehicle: DMSO 101 % of control | dose: 3.12 mg/kg/injection, schedule: Q01DX005 (ip), vehicle: DMSO 105 % of control and 109 % of control | dose: 6.25 mg/kg/injection, schedule: Q01DX005 (ip), vehicle: DMSO 114 % of control | dose: 12.5 mg/kg/injection, schedule: Q01DX005 (ip), vehicle: DMSO 123 % of control

CCOC(=O)C(N=Nc1ccc(Br)c(C)c1)C(C)=O (stereo unspecified)
inactive: [1] 107 % of control | [2] 93 % of control | [3] 97 % of control

CCOc1c(OC)cc(-c2n[nH]c(=O)o2)cc1OC
inactive: dose: 33.75 mg/kg/injection, schedule: Q01DX009 (ip), vehicle: Klucel (hydroxypropylcellulose) (HPC) 90 % of control | dose: 67.5 mg/kg/injection, schedule: Q01DX009 (ip), vehicle: Klucel (hydroxypropylcellulose) (HPC) 105 % of control | dose: 135.0 mg/kg/injection, schedule: Q01DX009 (ip), vehicle: Klucel (hydroxypropylcellulose) (HPC) 99 % of control

CCNCC(=O)Nc1ccc(C2NC(=O)C(C)(C)c3ccccc32)cc1 (stereo unspecified)
inactive: dose: 50.0 mg/kg/injection, schedule: Q01DX009 (ip), vehicle: saline 99 % of control | dose: 100.0 mg/kg/injection, schedule: Q01DX009 (ip), vehicle: saline 101 % of control | dose: 200.0 mg/kg/injection, schedule: Q01DX009 (ip), vehicle: saline 97 % of control

CCn1ncc2c(=O)c(C(=O)c3ccccc3)c[nH]c21
inactive: [1] 99 % of control | [2] 97 % of control | [3] 104 % of control

CN(C)CCN(C)CCC(=O)/C=C/c1ccccc1
inactive: dose: 12.5 mg/kg/injection, schedule: Q01DX001 (ip), vehicle: saline 94 % of control | dose: 25.0 mg/kg/injection, schedule: Q01DX001 (ip), vehicle: saline 101 % of control | dose: 50.0 mg/kg/injection, schedule: Q01DX001 (ip), vehicle: saline 111 % of control

C/C=C1\CN2CCc3c([nH]c4ccccc34)C2CC1C1=CN2c3ccccc3C34CCN5CC6=CCOC1C(C6CC53)C24 (stereo unspecified)
inactive: dose: 2.38 mg/kg/injection, schedule: Q01DX005 (ip), vehicle: Klucel (hydroxypropylcellulose) (HPC) 95 % of control | dose: 4.75 mg/kg/injection, schedule: Q01DX005 (ip), vehicle: Klucel (hydroxypropylcellulose) (HPC) 97 % of control | dose: 9.5 mg/kg/injection, schedule: Q01DX005 (ip), vehicle: Klucel (hydroxypropylcellulose) (HPC) 88 % of control

COC(=O)C[C@H]1[C@]2(C)C[C@@]34OC5(C)O[C@]6([C@@H]7CC(=O)OC(c8ccoc8)[C@]7(C)[C@@H](OC(C)=O)C[C@]6(O5)[C@@]13C)[C@H](OC(=O)C(C)C)[C@]4(O)[C@H]2OC(=O)C(C)C (stereo partly specified)
inactive: dose: 0.37 mg/kg/injection, schedule: Q01DX009 (ip), vehicle: Klucel (hydroxypropylcellulose) (HPC) 95 % of control | dose: 0.75 mg/kg/injection, schedule: Q01DX009 (ip), vehicle: Klucel (hydroxypropylcellulose) (HPC) 94 % of control | dose: 1.5 mg/kg/injection, schedule: Q01DX009 (ip), vehicle: Klucel (hydroxypropylcellulose) (HPC) 98 % of control | dose: 3.0 mg/kg/injection, schedule: Q01DX009 (ip), vehicle: Klucel (hydroxypropylcellulose) (HPC) 93 % of control

C/C(=C\c1cc2c(cc1Cl)OCO2)[N+](=O)[O-]
inactive: dose: 100.0 mg/kg/injection, schedule: Q04DX002 (ip), vehicle: Klucel (hydroxypropylcellulose) (HPC) 104 % of control | dose: 200.0 mg/kg/injection, schedule: Q04DX002 (ip), vehicle: Klucel (hydroxypropylcellulose) (HPC) 102 % of control | dose: 400.0 mg/kg/injection, schedule: Q04DX002 (ip), vehicle: Klucel (hydroxypropylcellulose) (HPC) 118 % of control

CSC1(c2ccccc2NS(=O)(=O)c2ccccc2)SCCS1
inactive: dose: 50.0 mg/kg/injection, schedule: Q04DX003 (ip), vehicle: saline 102 % of control | [4] 92 % of control | [5] 89 % of control

O=C(O)CCC(=O)NCC1CCCC(CNC(=O)CCC(=O)O)C1 (stereo unspecified)
inactive: [6] 96 % of control | [7] 110 % of control | [8] 101 % of control

Cc1ccc2c(c1)=N/C(=N\c1nc(O)c(O)[nH]1)N=2
inactive: dose: 60.0 mg/kg/injection, schedule: Q01DX009 (ip), vehicle: saline with Tween-80 106 % of control | [9] 106 % of control | dose: 140.0 mg/kg/injection, schedule: Q01DX009 (ip), vehicle: saline with Tween-80 109 % of control | dose: 210.0 mg/kg/injection, schedule: Q01DX009 (ip), vehicle: saline with Tween-80 111 % of control

Cc1nc2ncn(-c3ccccc3)c2c(=O)n1CC(C)C
inactive: [10] 100 % of control | dose: 100.0 mg/kg/injection, schedule: Q01DX005 (ip), vehicle: Klucel (hydroxypropylcellulose) (HPC) 101 % of control | dose: 200.0 mg/kg/injection, schedule: Q01DX005 (ip), vehicle: Klucel (hydroxypropylcellulose) (HPC) 102 % of control

Cc1ccc(S(=O)(=O)O/N=C2/CCC(C)(C)c3ccccc32)cc1
inactive: [9] 90 % of control | dose: 200.0 mg/kg/injection, schedule: Q01DX009 (ip), vehicle: saline with Tween-80 100 % of control | dose: 400.0 mg/kg/injection, schedule: Q01DX009 (ip), vehicle: saline with Tween-80 90 % of control

[Br][Rh][Br].[NH-]c1nc2c(ccc3ccccc32)s1.[NH-]c1nc2c(ccc3ccccc32)s1.[NH-]c1nc2c(ccc3ccccc32)s1.[NH-]c1nc2c(ccc3ccccc32)s1
inactive: [4] 109 % of control | [5] 103 % of control | dose: 400.0 mg/kg/injection, schedule: Q04DX003 (ip), vehicle: saline 98 % of control

CN(C)CCCSc1n[nH]c(=O)[nH]c1=O
inactive: dose: 25.0 mg/kg/injection, schedule: Q01DX005 (ip), vehicle: distilled water + alcohol 111 % of control | dose: 50.0 mg/kg/injection, schedule: Q01DX005 (ip), vehicle: distilled water + alcohol 104 % of control | dose: 100.0 mg/kg/injection, schedule: Q01DX005 (ip), vehicle: distilled water + alcohol 95 % of control | dose: 200.0 mg/kg/injection, schedule: Q01DX005 (ip), vehicle: distilled water + alcohol 92 % of control

CCN(CC)CC.[CH-]1CCCCC1.[CH-]1CCCCC1.[CH-]1CCCCC1.[Cl-].[I-].[Sn+4]
inactive: dose: 1.5 mg/kg/injection, schedule: Q01DX005 (ip), vehicle: Klucel (hydroxypropylcellulose) (HPC) 96 % of control | dose: 3.0 mg/kg/injection, schedule: Q01DX005 (ip), vehicle: Klucel (hydroxypropylcellulose) (HPC) 98 % of control | dose: 6.0 mg/kg/injection, schedule: Q01DX005 (ip), vehicle: Klucel (hydroxypropylcellulose) (HPC) 100 % of control and 93 % of control

CCc1ccc(-n2c(C)nc3[nH]cc(C)c3c2=N)cc1
inactive: dose: 12.5 mg/kg/injection, schedule: Q01DX005 (ip), vehicle: Klucel (hydroxypropylcellulose) (HPC) 100 % of control | dose: 25.0 mg/kg/injection, schedule: Q01DX005 (ip), vehicle: Klucel (hydroxypropylcellulose) (HPC) 100 % of control | [10] 98 % of control and 100 % of control

COc1cc(OCc2ccccc2)c(O)cc1-c1coc2cc(OCc3ccccc3)ccc2c1=O
inactive: dose: 100.0 mg/kg/injection, schedule: Q01DX001 (ip), vehicle: Klucel (hydroxypropylcellulose) (HPC) 96 % of control | dose: 200.0 mg/kg/injection, schedule: Q01DX001 (ip), vehicle: Klucel (hydroxypropylcellulose) (HPC) 100 % of control | dose: 400.0 mg/kg/injection, schedule: Q01DX001 (ip), vehicle: Klucel (hydroxypropylcellulose) (HPC) 94 % of control

Cc1ccccc1C1OC2=C(Nc3ccc([N+](=O)[O-])cc3N2)C1=O (stereo unspecified)
inactive: dose: 60.0 mg/kg/injection, schedule: Q01DX005 (ip), vehicle: Klucel (hydroxypropylcellulose) (HPC) 88 % of control | dose: 120.0 mg/kg/injection, schedule: Q01DX005 (ip), vehicle: Klucel (hydroxypropylcellulose) (HPC) 90 % of control | dose: 240.0 mg/kg/injection, schedule: Q01DX005 (ip), vehicle: Klucel (hydroxypropylcellulose) (HPC) 101 % of control

NC(=Nc1ccccc1)N(c1ccccc1)c1ccc([N+](=O)[O-])cc1
inactive: dose: 7.5 mg/kg/injection, schedule: Q01DX009 (ip), vehicle: saline with Tween-80 92 % of control | dose: 15.0 mg/kg/injection, schedule: Q01DX009 (ip), vehicle: saline with Tween-80 100 % of control | dose: 30.0 mg/kg/injection, schedule: Q01DX009 (ip), vehicle: saline with Tween-80 91 % of control

O=C(Nc1cccc(C(F)(F)F)c1)Nc1nccs1
inactive: dose: 25.0 mg/kg/injection, schedule: Q01DX009 (ip), vehicle: Klucel (hydroxypropylcellulose) (HPC) 100 % of control | [6] 98 % of control | [7] 97 % of control

COC(=O)NCP(=S)(CNC(=O)OC)CNC(=O)OC
inactive: [6] 105 % of control | [7] 96 % of control | [8] 95 % of control
